Legend:
Assay type in all cases: in vivo, mouse
[1] = tested on: diet-induced obese mice; test: body composition by EchoMRI in EOS treated mice; settings: 3 g/L in drinking water, day 7 vs day 0
Method: Body composition was assessed in diet-induced obese mice on day 0 and 7 days after continuous provision of EOS in the drinking water (3 g/L) using an EchoMRI 900 with A10 insert for mice. Calibration was performed daily and had the water stage set to on.

[2] = tested on: diet-induced obese mice; test: EOS in drinking water (3 g/L) in obese mice: glucose homeostasis, body mass
Method: In a separate set of studies, an ITT was performed in obese mice to establish insulin resistance. Subsequently, EOS was provided ad libitum in the water (3 g/L) for 4 days. An OGTT and ITT were performed on days 3 and 4 of treatment, respectively. The water was then removed, and an ITT was performed 2 weeks later to establish the timing of restoration of insulin resistance after drug removal.
(§1) Oral glucose (2.5 g/kg; 0.1 mL/10 g body weight; Chem-Impex Int'l Inc., Wood Dale, Ill.) was given to 4 hour fasted individually housed mice. All glucose tolerance tests began at […] and glucose was measured in whole blood, collected from the tail vein, by glucometer (Manufacture #D2ASCCONKIT, Bayer, Leverkusen, Germany) at 0, 15, 30, 60, 90, and 120 minutes after glucose gavage. Blood for serum insulin (oral glucose stimulated insulin secretion; OGSIS) and glucose determination was collected from the tail vein 15 minutes following glucose administration.
(§2) Intraperitoneal insulin (0.5 U/kg; 0.1 mL/10 g body weight; Sigma Aldrich, St. Louis, Mo.) was given to 4 hour fasted individually housed mice. All insulin tolerance tests began at […] and glucose was measured in whole blood, collected from the tail vein, by glucometer (Manufacture #D2ASCCONKIT, Bayer, Leverkusen, Germany) at 0, 30, 60, 90, and 120 minutes after insulin injection.

[3] = tested on: obese hepatic vagotomized and sham operated mice; test: EOS (8 mg/day) in HFD-induced obese sham operated and hepatic vagotomized mice
Method: Surgeries were performed in 12-week old male C57BL/6J mice under isoflurane anesthesia. Mice were randomly assigned to a surgical group (sham or vagotomy). A ventral midline incision through the skin and peritoneum allowed us to isolate the hepatic vagus nerve as it branched from the esophagus. In vagotomized mice, the hepatic vagal nerve was severed, while it remained intact in sham operated mice. The peritoneum was sutured with absorbable polyglactin 910 suture and the skin with nylon suture. Mice were given a single post-operative dose of slow release formulated buprenorphine analgesic (1.2 mg/kg slow release, sub-cutaneous). Food intake and body weight were monitored daily and sutures were removed 7 days post-operation.
Wildtype lean and obese mice were randomly divided into treatment groups and dosed daily with 8 mg of ethanolamine-O-sulfate (EOS; Sigma-Aldrich, St. Louis, Mo.), vigabatrin (United States Pharmacopeia, Rockville, Md.) or PBS. Obese sham and vagotomy mice were dosed daily with 8 mg of EOS. In all cases, basal bleeds were taken prior to initiation of an ITT. Lean mice received treatment by oral gavage (0.3 mL/mouse) while obese mice were treated by intraperitoneal injection (0.3 mL/mouse). Pre-treatment studies were conducted in the week immediately prior to beginning drug administration. Daily doses took place at 9 am each day and oral glucose tolerance tests (OGTT) and insulin tolerance tests (ITT) were performed on the third and fourth days of treatment in lean mice, respectively. In wildtype obese mice, OGTT and ITT were performed on the fourth day of treatment in separate cohorts. On the fifth day of treatment, 2DG clearance studies were performed. In sham/vagotomy mice, OGTT and ITT were performed on the fourth and fifth day of treatment, respectively. After a 2-week washout period without treatment injection, a basal bleed and bleed 15 minutes after an oral glucose gavage ([…]) to determine oral glucose stimulated insulin secretion were performed.
as §1, §2

With `NCCOS(=O)(=O)O` [EOS, ethanolamine-O-sulfate] the “decrease of fat mass” value [1] was 16.27%, the “decrease of lean mass” value [1] was 6.15% and the “decrease of total body mass” value [1] was 10%. For the same compound, the response after withdrawal ([2]; 2 weeks without EOS in the drinking water) was “washed out”, the body mass ([2]; diet-induced obese mice, 3 g/L in drinking water, 7 weeks) was “dramatically decreased” and the “measures of glucose homeostasis” value ([2]; obese mice, 3 g/L in drinking water, 4 days) was “similarly improved”. For the same compound, the “responses to EOS in vagotomized mice” value ([3]; hepatic vagotomized obese mice) was “eliminated most of the responses”, the serum glucose ([3]; hepatic vagotomized obese mice) was “decrease” and the “glucose stimulated serum insulin” value ([3]; sham operated obese mice) was “diminished”. The “glucose:insulin ratio” value ([3]; sham operated obese mice) was “elevated”, the “insulin sensitivity by insulin tolerance test” value ([3]; sham operated obese mice) was “tended to improve” and the oral glucose tolerance ([3]; sham operated obese mice) was “improved”. For the same compound, the serum glucose ([3]; sham operated obese mice) was “decreased”, the serum insulin ([3]; sham operated obese mice) was “decreased” and the “all parameters after washout” value ([3]; sham operated obese mice, 2-week washout) was “restored all parameters to pre-treatment measures”. The “body weight between surgical groups” value ([3]; sham vs vagotomized, during EOS treatment) was “did not differ”.
